Reference: article PMC9531372, “Metabolic profiling and pharmacokinetic studies of Baihu-Guizhi decoction in rats by UFLC-Q-TOF–MS/MS and UHPLC-Q-TRAP-MS/MS” (Chinese Medicine, 2022)

Assay: in vivo
Details: for AUC(0-inf) / AUC(0-t) / CL / Cmax / MRT inf / MRT last / Vd / half-life / Tmax: male, Lewis, rat, po
Source text: Male Lewis rats, weighing 200–240 g, were purchased from Beijing Charles River Experimental Animals Co. Ltd. (Beijing, China). […] Animal experiments were approved and supervised by the National Institutes of Health guide for the care and use of Laboratory animals. Every effort was made to minimize both the employed animal numbers as well as the potential discomfort of the animals throughout the study.
For single administration, rats were orally administrated with BHGZD powder at dose of 21.4 g/kg, which was equivalent to two-fold of clinical dose in human. […] For multiple administration, rats were intragastrically administered BHGZD (21.4 g/kg/day) once a day, for continuous 12 days. […] Serum was freshly prepared by centrifugation and stored at – 80 ℃ till analysis.
Quantification for five absorbed compounds of BHGZD in rat serum were achieved by using a Shimadzu ultra-high-performance liquid chromatography tandem ion trap quadrupole Q-TRAP 6500 plus mass spectrometry (UHPLC-Q-TRAP-MS/MS). Sample preparations were described above.
Chromatographic separation was carried out on a Poroshell 120 EC-C18 column (50 × 3.0 mm, 2.7 μm, Agilent, USA) with a flow rate 0.3 mL/min.
The optimized parameters for the mass spectrometer were set as follows: curtain gas, 35 psi; collision gas, medium; ionspray voltage, 4500 V; temperature, 550 °C; ion source gas 1 and 2, 55 psi. […] Data acquisition and analysis were achieved by OS-Q software (version 1.4.1.20719, AB Sciex, USA). Pharmacokinetic analysis was conducted by Drug and Statistic software (version 3.0, Shanghai, China).
The developed methodology was then applied for the in vivo pharmacokinetic evaluations of these five absorbed components. After single or multiple gavages of BHGZD, rat serum was collected at indicated time points, and the concentrations of five analyte were quantified accordingly.

[1] = serum, 21.4 g/kg, rat serum, BHGZD 21.4 g/kg oral gavage, single dose, n = 8, mean ± SEM

| Compound | AUC(0-inf) (in vivo, 21.4 g/kg) | AUC(0-t) (in vivo, 21.4 g/kg) | CL (in vivo, 21.4 g/kg) | Cmax (in vivo, 21.4 g/kg) | MRT inf (in vivo, 21.4 g/kg) | MRT last (in vivo, 21.4 g/kg) | Vd (in vivo, 21.4 g/kg) | half-life (in vivo, 21.4 g/kg) | Tmax (in vivo, 21.4 g/kg) | AUC(0-inf) (serum, 21.4 g/kg) | AUC(0-t) (serum, 21.4 g/kg) | Cmax (serum, 21.4 g/kg) | MRT inf (serum, 21.4 g/kg) | MRT last (serum, 21.4 g/kg) | half-life (serum, 21.4 g/kg) | Tmax (serum, 21.4 g/kg, rat serum after BHGZD gavage, regimen not given) | Tmax [1] | Tmax (serum, 21.4 g/kg/day, rat serum, BHGZD 21.4 g/kg/day gavage once a day for 12 days, multiple dose, sampled day 12, n = 8, mean ± SEM) | pattern of absorption and elimination in serum (rat serum, single or multiple gavages of BHGZD) |
| --- | --- | --- | --- | --- | --- | --- | --- | --- | --- | --- | --- | --- | --- | --- | --- | --- | --- | --- | --- |
| CC1(C)[C@@H](O[C@H]2O[C@H](C(=O)O)[C@@H](O)[C@H](O)[C@H]2O[C@@H]2O[C@H](C(=O)O)[C@@H](O)[C@H](O)[C@H]2O)CC[C@]2(C)[C@H]3C(=O)C=C4[C@@H]5C[C@@](C)(C(=O)O)CC[C@]5(C)CC[C@@]4(C)[C@]3(C)CC[C@@H]12 [Glycyrrhizic acid] | 91.8 ± 44.2 ng·h/mL | 67.3 ± 36.8 ng·h/mL | 288,330 ± 150,321 L/h/kg | 15.6 ± 8.97 ng/mL | 5.83 ± 1.42 h | 5.06 ± 1.37 h | 867,518 ± 160,982 L/kg | 2.99 ± 0.82 h | 5.88 ± 2.85 h | – | – | – | – | – | – | – | – | – | – |
| O=c1c2cc(O)c(O)cc2oc2cc(O)c([C@@H]3O[C@H](CO)[C@@H](O)[C@H](O)[C@H]3O)c(O)c12 [Mangiferin] | 298 ± 298 ng·h/mL | 266 ± 306 ng·h/mL | 228,709 ± 238,817 L/h/kg | 48.1 ± 52.7 ng/mL | 6.72 ± 6.64 h | 3.6 ± 0.75 h | 1,049,685 ± 1,125,516 L/kg | 3.64 ± 4.82 h | 2.56 ± 1.68 h | – | – | – | – | – | – | – | – | – | – |
| O=C(O)/C=C/c1ccccc1 [Cinnamic acid] | – | – | – | – | – | – | – | – | – | 307 ± 120 ng·h/mL | 110 ± 127 ng·h/mL | 53.3 ± 32.6 ng/mL | 10.5 ± 12.5 h | 3.66 ± 1.03 h | 2.36 ± 1.03 h | ~0.3 h | 0.37 ± 0.35 h | – | – |
| C[C@H]1CC[C@@]2(OC1)O[C@H]1C[C@H]3[C@@H]4CC[C@@H]5C[C@@H](O[C@@H]6O[C@H](CO)[C@H](O)[C@H](O)[C@H]6O[C@@H]6O[C@H](CO)[C@@H](O)[C@H](O)[C@H]6O)CC[C@]5(C)[C@H]4CC[C@]3(C)[C@H]1[C@@H]2C [Timosaponin AIII] | – | – | – | – | – | – | – | – | – | 45.3 ± 13.9 ng·h/mL | 35.6 ± 7.99 ng·h/mL | 5.41 ± 1.23 ng/mL | 9.92 ± 2.73 h | 7.54 ± 1.15 h | 4.98 ± 1.74 h | – | 6.38 ± 1.69 h | 4.62 ± 2.13 h | dual-peak response with prolonged pattern of absorption and elimination |
